Experimental data as given in BindingDB's records for patent US20230278983 (Universite Claude Bernard Lyon 1, 2023).

Target: Casein kinase II subunit alpha (Homo sapiens, UniProt P68400)
Assay: Radiometric Kinase Assay

Casein kinase II subunit alpha, sequence (P68400 whole entry): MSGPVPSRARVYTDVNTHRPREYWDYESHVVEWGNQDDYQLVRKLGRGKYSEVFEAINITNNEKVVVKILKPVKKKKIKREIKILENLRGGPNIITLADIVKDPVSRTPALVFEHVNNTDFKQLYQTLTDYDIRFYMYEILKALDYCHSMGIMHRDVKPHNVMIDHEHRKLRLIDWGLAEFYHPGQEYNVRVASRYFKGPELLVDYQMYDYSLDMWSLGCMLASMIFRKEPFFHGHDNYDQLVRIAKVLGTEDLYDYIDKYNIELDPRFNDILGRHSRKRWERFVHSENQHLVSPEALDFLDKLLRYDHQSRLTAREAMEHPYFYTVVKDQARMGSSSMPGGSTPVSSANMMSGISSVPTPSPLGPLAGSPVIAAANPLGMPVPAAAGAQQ

Structure (SMILES): CC(C)COC(=O)c1[nH]c2ccc(F)cc2c1-c1cn(CC2CCN(CCNS(=O)(=O)c3ccc(-c4ccccc4C#N)cc3)CC2)nn1 [US20230278983, Code AB1076]
- IC50: 0.046 µM
